The test system of one data set is plasma glucose levels. The note with it: compared with Metformin (250 mg/kg); cited from earlier work.
The target in a further data set is human liver FBPase (Homo sapiens (Human), UniProt P09467). The data set can be described thus: FBPase activity, enzyme-coupled spectrophotometric assay. In kind it is biochemical. The note with it: for IC50: human liver FBPase; for inhibition of human liver FBPase relative to AMP: compared with AMP, the natural allosteric inhibitor. On the procedure: Compounds 3 and 4 (see Scheme 1) were synthesized and tested to determine if they could inhibit either pig kidney or human liver FBPase. The test were performed using an enzyme-coupled assay^17 with AMP as a control.
human liver FBPase, sequence (P09467 2-338): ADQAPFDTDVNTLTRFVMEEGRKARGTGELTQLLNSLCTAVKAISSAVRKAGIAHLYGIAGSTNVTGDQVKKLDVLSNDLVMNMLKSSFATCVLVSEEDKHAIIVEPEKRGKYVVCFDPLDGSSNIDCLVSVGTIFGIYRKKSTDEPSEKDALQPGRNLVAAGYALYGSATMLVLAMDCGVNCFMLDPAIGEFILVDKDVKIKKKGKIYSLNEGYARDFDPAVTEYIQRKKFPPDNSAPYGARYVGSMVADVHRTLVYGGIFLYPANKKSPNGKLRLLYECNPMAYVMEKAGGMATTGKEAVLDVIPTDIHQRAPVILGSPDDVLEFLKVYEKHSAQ
(§1) FBPase activity was measured spectrophotometrically by employing the coupling enzymes phosphoglucose isomerase and glucose-6-phosphate dehydrogenase.^17 The reduction of NADP+ to NADPH was monitored directly at 340 nm. Specifically, buffer (0.2 M Tris, 4 mM MgCl2, 4 mM (NH4)2SO4, 0.1 EDTA, pH 7.5), 0.2 mM of NADP+, 1.4 units of phosphoglucose isomerase and 0.5 units of glucose-6-phosphate dehydrogenase, 0-300M of inhibitor and 9 ng of FBPase, were mixed in a cuvette and equilibrated at 30° C. 70M of FBP was then added to initiate the reaction. Absdata were collected as a function of time using a JASCO V-630 spectrophotometer.
(§2) After a lag phase, due to coupling, a straight line was fitted to the progress curve and the slope value was recorded asAbs340 per min. The amount of NADPH produced per minute was calculated using the 340 nm millimolar extinction coefficient of 6.22. At each inhibitor concentration, reactions were performed in duplicate. Inhibition curves were obtained for each compound by plotting the relative activity versus inhibitor concentration.

Another data set has as its target pig kidney FBPase (Sus scrofa, UniProt P00636). The data set is described as above. In kind it is biochemical. The settings on record: for inhibition of pig kidney FBPase relative to AMP: compared with AMP, the natural allosteric inhibitor; for IC50: pig kidney FBPase. How it is done:
The test were performed using an enzyme-coupled assay^17 with AMP as a control.
as §1, §2

Data set [1] concerns allosteric site of FBPase. The data set can be described thus: TNP-AMP fluorescence competition experiment. In kind it is binding. The settings on record: TNP-AMP at 0.5 times its Kd. On the procedure:
Fluorescence data were collected using a JASCO FP-6300 spectro-fluorometer. Excitation and emission wavelengths of 410 and 535 nm respectively were used for TNPAMP (Molecular Probes). 0.15 mg of the respective FBPases, 0.08 mM MgCl and 20M fructose 1, 6-2 bisphosphate in 50 mM Tris-acetate buffer, pH 7.5, was added to a 2 mL cuvette and stirred. 3.5 M of TNP-AMP was added to the cuvette and the emission data was obtained Microliter volumes of 3 were subsequently added to the cuvette and resultant emission data was obtained after each addition. The final concentration of 3 in the enzyme solution was 6M.

Data set [2] in a line: Solubility (remark in competition experiment). In kind it is physicochemical.
Setting [3] is: read-out: FBPase, IC50 Human Liver.

Values joined by “and” are separate entries in the source; they are usually repeats but may differ in a detail not shown here. Equal values may be shown once. Read-outs that look alike come from different tables or passages of the source.

pig kidney FBPase, sequence (P00636 2-338 limits assumed): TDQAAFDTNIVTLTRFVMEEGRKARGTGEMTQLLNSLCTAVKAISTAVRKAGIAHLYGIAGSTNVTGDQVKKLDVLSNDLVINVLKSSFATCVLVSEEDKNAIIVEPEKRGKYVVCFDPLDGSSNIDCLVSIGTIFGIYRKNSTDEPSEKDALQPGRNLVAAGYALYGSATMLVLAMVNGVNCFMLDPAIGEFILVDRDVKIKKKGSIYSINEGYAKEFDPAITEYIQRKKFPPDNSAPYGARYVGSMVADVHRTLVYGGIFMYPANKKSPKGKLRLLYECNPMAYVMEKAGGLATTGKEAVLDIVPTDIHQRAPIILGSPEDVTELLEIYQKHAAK

On to `C=C(C)C(O)Cc1c(O)c(C(=O)C(C)CC)c(O)c2c1oc1c(C(=O)C(C)CC)c(O)c(CC=C(C)C)c(O)c12` (stereo not shown) [Compound 1, achyrofuran], for which, in the data set with plasma glucose levels, the “lowering of plasma glucose levels” value is on record as “better than that of Metformin”.

Take `CC(=O)C1=C(O)C=C2Oc3c(C(C)=O)c(O)c(C)c(O)c3[C@@]2(C)C1=O` [Compound 2, (+)-usnic acid, reference compound]: the IC50 at human liver FBPase (read-out: IC50 human liver FBPase) is 370 µM.

Turning to `CCC(C)C(=O)c1c(O)cc2oc3c(C(=O)C(C)CC)c(O)cc(O)c3c2c1O` (stereo not shown) [Compound 4, 1,1′-(1,3,7,9-tetrahydroxydibenzofuran-2,6-diyl)bis(2-methylbutan-1-one)], the “inhibition of pig kidney FBPase relative to AMP” value at pig kidney FBPase is reported as “comparable to that of AMP”. Besides, the IC50 on pig kidney FBPase amounted to 5 µM; at human liver FBPase (setting [3]), 6 µM. Besides, the “inhibition of human liver FBPase relative to AMP” value at human liver FBPase was “comparable to that of AMP”. Further, the “TNP-AMP fluorescence on addition of increasing concentrations of compound” value in data set [1] is reported as “substantial diminution of the TNP-AMP fluorescence”. Moreover, the solubility entry in data set [2] is “relatively low solubility”.

Regarding `Nc1ncnc2c1ncn2[C@@H]1O[C@H](COP(=O)(O)O)[C@@H](O)[C@H]1O` [AMP, reference compound], the IC50 against pig kidney FBPase was 1.3 µM; on human liver FBPase (setting [3]), 9.7 µM and 9.8 µM.

For `CC(C)CC(=O)c1c(O)cc2oc3c(C(=O)CC(C)C)c(O)cc(O)c3c2c1O` [Compound 3, 1,1′-(1,3,7,9-tetrahydroxydibenzofuran-2,6-diyl)bis(3-methylbutan-1-one)], on pig kidney FBPase, the “inhibition of pig kidney FBPase relative to AMP” value was “comparable to that of AMP” and the IC50 was found to be 1.5 ± 0.1 µM. On human liver FBPase, the “inhibition of human liver FBPase relative to AMP” value is reported as “comparable to that of AMP”. Moreover, on human liver FBPase (setting [3]), the IC50 was determined as 8.1 µM. In addition, in data set [1], the “TNP-AMP fluorescence on addition of increasing concentrations of compound” value is listed as “substantial diminution of the TNP-AMP fluorescence”. Further, the solubility entry in data set [2] is recorded as “relatively low solubility”.

One may read the IC50 as the concentration that gives 50% inhibition.

Source of the values: patent US9273021B2, “Dibenzofuran derivatives as inhibitors of fructose 1,6-bisphosphatase and methods of use thereof” (TRUSTEES OF BOSTON COLLEGE, priority 2009, dated 2016).
